Values belong to the compound of their own block, whether it stands above or below them. Calls of active or inactive are those of the source. The rule behind the calls is not given here.
Tests used:
[1] = Inhibition of alpha-glucosidase (unknown origin); parameters: species or system Homo sapiens
Homo sapiens [2] = organism: Homo sapiens; experiment: Binding affinity to alpha-glucosidase (unknown origin) assessed as hydrophobic interactions by measuring change in enthalpy at 304 K by Van't Hoff equation analysis
Homo sapiens [3] = organism: Homo sapiens; experiment: Binding affinity to alpha-glucosidase (unknown origin) assessed as Stern-Volmer quenching constant at 298 K
Homo sapiens [4] = organism: Homo sapiens; experiment: Binding affinity to alpha-glucosidase (unknown origin) assessed as change in the microenvironment of tyrosine and tryptophan residues at 0.33 to 3.32 uM by fluorescence based Synchronous fluorescence spectroscopy; details: dose microM 0.33-3.32
Homo sapiens [5] = organism: Homo sapiens; experiment: Binding affinity to alpha-glucosidase (unknown origin) assessed as change in gibbs free energy at 310 K by Van't Hoff equation analysis
Homo sapiens [6] = organism: Homo sapiens; experiment: Binding affinity to alpha-glucosidase (unknown origin) assessed as quenching constant at 298 K
Homo sapiens [7] = organism: Homo sapiens; experiment: Binding affinity to alpha-glucosidase (unknown origin) assessed as decrease in fluorescence intensity of Tyr residue without shift in maximum emission wavelength at 0.33 to 3.22 uM by fluorescence based Synchronous fluorescence spectroscopy; details: dose microM 0.33-3.22
Rattus norvegicus [8] = organism: Rattus norvegicus; experiment: Inhibition of alpha-glucosidase in rat everted intestinal sleeves assessed as reduction in blood glucose AUC (0-90) outside of the intestinal sleeves at 0.173 mM; format: tissue-based; details: Intestine, time min 0-90
Homo sapiens [9] = organism: Homo sapiens; experiment: Binding affinity to alpha-glucosidase (unknown origin) assessed as enzyme complexation with compound at 2.5 uM by measuring mean width of enzyme by atomic force microscopy (reference value: 28.35 nm)
Mus musculus [10] = organism: Mus musculus; experiment: Hypoglycemic activity in Kunming mouse assessed as reduction in maltose-induced blood glucose AUC (0 to 120 mins) by maltose loading test; format: functional, organism-based; details: time min 0-120
Homo sapiens [11] = organism: Homo sapiens; experiment: Binding affinity to alpha-glucosidase (unknown origin) assessed as quenching constant at 304 K
Homo sapiens [12] = organism: Homo sapiens; experiment: Binding affinity to alpha-glucosidase (unknown origin) assessed as decrease in fluorescence intensity of Trp residue without shift in maximum emission wavelength at 0.33-3.22 uM by fluorescence based Synchronous fluorescence spectroscopy; details: dose microM 0.33-3.22
Homo sapiens [13] = organism: Homo sapiens; experiment: Binding affinity to alpha-glucosidase (unknown origin) assessed as quenching constant at 310 K
Rattus norvegicus [14] = organism: Rattus norvegicus; experiment: Inhibition of alpha-glucosidase in rat everted intestinal sleeves assessed as reduction in glucose concentration within intestinal sleeves at 0.173 mM measured for 5 to 90 mins; format: tissue-based; details: Intestine, time min 5-90
Rattus norvegicus [15] = organism: Rattus norvegicus; experiment: Inhibition of alpha-glucosidase in rat everted intestinal sleeves assessed as reduction in glucose concentration outside of the intestinal sleeves at 0.173 mM measured after 5 to 90 mins; format: tissue-based; details: Intestine, time min 5-90
Homo sapiens [16] = organism: Homo sapiens; experiment: Binding affinity to alpha-glucosidase (unknown origin) assessed as Stern-Volmer quenching constant at 310 K
Homo sapiens [17] = organism: Homo sapiens; experiment: Non-competitive inhibition of alpha-glucosidase (unknown origin) assessed as decrease in Vmax with constant Km at 0.0 to 2.5 uM using p-NPG as substrate by Lineweaver-Burk plot analysis; details: dose microM 0.0-2.5
Rattus norvegicus [18] = organism: Rattus norvegicus; experiment: Inhibition of alpha-glucosidase in rat everted intestinal sleeves assessed as reduction in blood glucose AUC (0-90) within intestinal sleeves at 0.173 mM; format: tissue-based; details: Intestine, time min 0-90
Homo sapiens [19] = organism: Homo sapiens; experiment: Binding affinity to alpha-glucosidase (unknown origin) assessed as binding constant at 310 K
[20] = Binding affinity to alpha-glcosidase (unknown origin) using p-NPG as substrate; parameters: species or system Homo sapiens
Homo sapiens [21] = organism: Homo sapiens; experiment: Binding affinity to alpha-glucosidase (unknown origin) assessed as destabilization of enzyme conformation by measuring induction of protein aggregation at 2.5 uM by atomic force microscopy
Homo sapiens [22] = organism: Homo sapiens; experiment: Binding affinity to alpha-glucosidase (unknown origin) assessed as fluorescence quenching at 0.33 to 3.66 uM by fluorescence spectral analysis; details: dose microM 0.33-3.66
Homo sapiens [23] = organism: Homo sapiens; experiment: Binding affinity to alpha-glucosidase (unknown origin) assessed as Stern-Volmer quenching constant at 304 K
Mus musculus [24] = organism: Mus musculus; experiment: Hypoglycemic activity in Kunming mouse assessed as reduction in maltose-induced postprandial blood glucose level measured after 15 to 120 mins by maltose loading test; format: functional, organism-based; details: time min 15-120
Homo sapiens [25] = organism: Homo sapiens; experiment: Binding affinity to alpha-glucosidase (unknown origin) assessed as change in gibbs free energy at 304 K by Van't Hoff equation analysis
Homo sapiens [26] = organism: Homo sapiens; experiment: Binding affinity to alpha-glucosidase (unknown origin) assessed as binding constant at 304 K
Homo sapiens [27] = organism: Homo sapiens; experiment: Binding affinity to alpha-glucosidase (unknown origin) assessed as enzyme complexation with compound by measuring mean height of enzyme at 2.5 uM by atomic force microscopy (reference value: 0.87 nm)
Homo sapiens [28] = organism: Homo sapiens; experiment: Binding affinity to alpha-glucosidase (unknown origin) assessed as change in gibbs free energy at 298 K by Van't Hoff equation analysis
Homo sapiens [29] = organism: Homo sapiens; experiment: Binding affinity to alpha-glucosidase (unknown origin) assessed as binding constant at 298 K
Homo sapiens [30] = organism: Homo sapiens; experiment: Binding affinity to alpha-glucosidase (unknown origin) assessed as hydrogen bonding interactions by measuring change in entropy at 304 K by Van't Hoff equation analysis

- IC50 ([1]; read-out: IC50): 14.4 µM
SMILES: CC(C)C(=O)c1ccc(OC(=O)CI)cc1O

- IC50 ([1]; read-out: IC50): 20.6 µM
SMILES: Cc1cc(C(=O)C(C)C)c(O)c(Br)c1OC(=O)c1ccc([N+](=O)[O-])cc1

- IC50 [1]: Not Active
SMILES: CC(=O)Oc1ccc(C(=O)C(C)C)c(O)c1

- IC50 ([1]; read-out: IC50): 14.6 µM
SMILES: Cc1cc(C(=O)C(C)C)c(O)cc1OC(=O)c1ccccc1

- IC50 ([1]; read-out: IC50): 24.9 µM
SMILES: Cc1cc(C(=O)C(C)C)c(O)c(Br)c1OC(=O)c1ccc(Cl)cc1

- IC50 ([1]; read-out: IC50): 107 µM
SMILES: CCCCCC(=O)c1ccc(O)cc1O

- IC50 ([1]; read-out: IC50): 8.45 µM
SMILES: CCCCCCCCCC(=O)Oc1cc(O)c(C(=O)C(C)C)cc1C

- IC50 ([1]; read-out: IC50): 27.6 µM
SMILES: COc1ccc(C(=O)Oc2c(C)cc(C(=O)C(C)C)c(O)c2Br)cc1

- IC50 ([1]; read-out: IC50): 6.22 µM
SMILES: CCC(=O)c1cc(C)c(OC(=O)CI)cc1O

- IC50 ([1]; read-out: IC50): 74.6 µM
SMILES: CCCCCCCC(=O)c1ccc(O)cc1O

- IC50 ([1]; read-out: IC50): 121 µM
SMILES: CC(=O)Oc1c(C)cc(C(=O)C(C)C)c(O)c1Br

- IC50 [1]: Not Active
SMILES: CCC(=O)c1ccc(O)cc1O

- deltaH (Homo sapiens [2]): -1.02 kcal/mol
- KSV (Homo sapiens [3]): 2.27 10^4L/mol
- Activity (Homo sapiens [4]): inactive
- deltaG (Homo sapiens [5]): -4.36 kcal/mol
- Kq (Homo sapiens [6]): 2.27 10^12L/mol/s
- Activity (Homo sapiens [7]): inactive
- inhibition (Rattus norvegicus [8]): Active
- Activity (Homo sapiens [9]): 47.5 nm
- Kq (Homo sapiens [11]): 1.95 10^12L/mol/s
- Activity (Homo sapiens [12]): Active
- Kq (Homo sapiens [13]): 1.64 10^12L/mol/s
- inhibition (Rattus norvegicus [14]): Active
- inhibition (Rattus norvegicus [15]): Active
- KSV (Homo sapiens [16]): 1.64 10^4L/mol
- inhibition (Homo sapiens [17]): Active
- IC50 ([1]; read-out: IC50): 1.69 µM
- inhibition (Rattus norvegicus [18]): Active
- Ka (Homo sapiens [19]): 1.3 10^4L/mol
- Ki [20]: 1.62 µM
- Activity (Homo sapiens [21]): Active
- Activity (Homo sapiens [22]): Active
- KSV (Homo sapiens [23]): 1.95 10^4L/mol
- deltaG (Homo sapiens [25]): -4.29 kcal/mol
- Ka (Homo sapiens [26]): 1.34 10^4L/mol
- Activity (Homo sapiens [27]): 0.75 nm
- deltaG (Homo sapiens [28]): -4.23 kcal/mol
- Ka (Homo sapiens [29]): 1.39 10^4L/mol
- deltaS (Homo sapiens [30]): 45 J/mol/K
SMILES: CCCCCCCC(=O)c1cc(C)c(OC(=O)CI)cc1O
- Activity (Mus musculus [10]): Active
- Activity (Mus musculus [24]): Dose-dependent effect

- IC50 ([1]; read-out: IC50): 28.1 µM
SMILES: Cc1cc(C(=O)C(C)C)c(O)cc1OC(=O)c1cccc(Cl)c1

- IC50 ([1]; read-out: IC50): 23.7 µM
SMILES: Cc1cc(C(=O)C(C)C)c(O)cc1O

From ChEMBL document CHEMBL4699496, “Exploring efficacy of natural-derived acetylphenol scaffold inhibitors for α-glucosidase: Synthesis, in vitro and in vivo biochemical studies” (Bioorg Med Chem Lett, 2020)
